Six compounds from patent US11034725B2, “Compositions and methods for treating cardiovascular disease” (Genentech, Inc., priority 2016, dated 2021) can be followed below.

Read-outs that look alike come from different tables or passages of the source. Bridge positions count the residues as written; N and C are the ends. Square brackets hold non-standard residues; d marks the D form. Peptide text beside a SMILES is read from it. hArg = N=C(N)NCCCC[C@H](N)C(=O)O

Assay [1] concerns the target T1, PCSK9 (Homo sapiens, UniProt Q8NBP7). The experiment in a line: PCSK9/LDLR-Fc TR-FRET assay (LDLR assay). Particulars: Table 11, LDLR-Fc, average ±S.D. of three experiments. Type of assay: binding. On the procedure:
In black 1536-well assay plates (MaKO, Aurora® Microplates, Whitefish, Mont.), 40 nL of peptide in DMSO were preincubated with 2 μL His-tagged PCSK9 plus anti-His-allophycocyanin in assay buffer (50 mM Tris-HCl, pH 7.5, 150 mM NaCl, 2 mM CaCl2, 0.01% Tween®-20, 0.1% bovine gamma globulins, and protease inhibitor cocktail) for 30 min. Then 2 μL of Fc-tagged ligand and anti-Fc-europium in assay buffer were added and allowed to incubate for 2 h. The PCSK9 and ligand conditions for each assay are as follows: 10 nM C-terminal (His)8-tagged PCSK9 (“(His)8” disclosed as SEQ ID NO: 304) and 12 nM EGF(A)-Fc for the EGF(A) assay, 10 nM C-terminal (His)8-tagged PCSK9 (“(His)8” disclosed as SEQ ID NO: 304) and 2.5 nM LDLR-Fc for the LDLR assay, 1.25 nM C-terminal (His)8-tagged PCSK9Δhelix (“(His)8” disclosed as SEQ ID NO: 304) and 0.75 nM Ab20 for the Ab20 assay, and 2 nM His-EGF(A)-Fc alone for the counterscreen. In all assays, anti-His-allophycocyanin and anti-Fc-europium were used at 20 nM and 2 nM, respectively. Fluorescence was measured with excitation at 340 nm and emission at 671 nm and 618 nm. The TR-FRET ratio was calculated as fluorescence at 671 nm/fluorescence at 618 nm. The ratios were normalized to controls and plotted against peptide concentration to determine IC50 values (Screener Analyzer, Genedata, Basel, CH). The peptides were evaluated in three separate experiments per assay with 10-point titrations and n=2 per concentration. The values presented are the average ±S.D. of three independent experiments.

Assay [2] has as its target T2, PCSK9Δhelix (Homo sapiens, UniProt Q8NBP7).
T2 construct: Human PCSK9 construct M1-Q692 with an engineered TEV site (residue deletion Y166, R167); made in house; host or cells: CHO
The experiment in a line: PCSK9Δhelix/Ab20 TR-FRET binding assay. Background: Time-resolved FRET reads energy transfer from a long-lived donor to a nearby acceptor.

The target of assay [3] is T2, PCSK9Δhelix. The experiment in a line: SPR affinity measurements of peptide binding (Example 8). As for the experimental part:
A Biacore™ T100 or Biacore™ 8K was adjusted to 20° C. The system was primed into assay buffer which consisted of 25 mM HEPES, pH 7.5, 0.15 M NaCl, 0.005% (v/v) Tween® 20, 0.2 mM tris(2-carboxyethyl)phosphine and optionally contained 0.1% (w/v) carboxymethylated dextran (average MW 10 kDa) and 0.2% (w/v) PEG (average MW 3450 Da) in order to reduce potential non-specific binding. Peptides were assayed by capturing fresh PCSK9 or PCSK9Δhelix after each binding regeneration cycle by exploiting a histidine tag and an NTA-sensor chip. The surface was charged with (His)8-tagged PCSK9 (approximately 800 RU captured). […] Compound 19 and Compound 20 were assayed in six serial two-fold dilutions from 100 nM to 3.1 nM. All peptides were analyzed in duplicate by serial injection (50 μL/min for 1 min) of peptide dilution from low to high concentration. The surface was then stripped of target by injecting 0.5 M EDTA, pH 8.0. This sequence was repeated for each peptide binding cycle and blank control cycles.
All SPR data was recorded in duplicate for five, or more serial dilutions, except for the two fusion peptides, which produced extremely low fitting error. Multicycle data (i.e. separate curves for each concentration) and single cycle data (i.e. single curve with serial injection of each concentration) were double referenced and fitted to an interaction model using BIAevaluation software. Peptide binding to PCSK9 produced deviations from a simple 1:1 binding interaction model that required application of a two-state model for determination of Kd while interactions with PCSK9Δhelix conformed well to simple 1:1 binding. Kinetic curvature was poorly defined for rapidly dissociating peptides and in these cases Kd was estimated from a steady-state dose response plot. Kd values were reported with associated standard error, a measure of confidence in that parameter value.

The target in assay [4] is T1, PCSK9. The experiment in a line: PCSK9/EGF(A) TR-FRET binding assay.
In the next assay the test system is His-EGF(A)-Fc. Kind of assay: His-EGF(A)-Fc TR-FRET counterscreen. Particulars: TR-FRET counterscreen; Table 8E, additional compounds.
In assay [5] the target is T1, PCSK9. The experiment in a line: Phage competition ELISA. It counts as binding. On the procedure: The sequences of selected clones were fused to the N-terminus of M13 major coat protein (p8) using Kunkel mutagenesis method (Kunkel et al., Methods Enzymol 154, 367-82). The resulting construct was transformed to E. Coli. XL1 blue, single colony was grown in 1 mL 2YT supplemented with 50 μg/mL carbenicillin, 10 μg/mL Tetracycline and M13 KO7 helper phage at 37° C. for 2 h, Kanamycin was added to final concentration of 25 μg/mL, growth was continued at 37° C. for 6 h. The culture was transferred to 30 mL 2YT supplemented with 50 μg/mL carbenicillin and 25 μg/mL kanamycin and grown at 37° C. overnight. The next day, the phage was harvested and purified using the standard protocol (Tonikian et al. Nat Protoc. 2007; 2(6):1368-86). The serially diluted phage solution was applied to the biotinylated PCSK9 and biotinylated PCSK9Δhelix that had been immobilized for 15 min on a 384-well MaxiSorp ImmunoPlate previously coated with 5 μg/mL NeutrAvidin and blocked with Block buffer. The plate was incubated at 4° C. for 1 h, washed 10 times with PT buffer (PBS, 0.05% Tween® 20). The bound phage was detected with anti-M13-HRP and the ELISA signal was read at OD450 nm. The background was ELISA signal that the phage directly bound to NeutrAvidin-coated plate. The data was plotted and the curve fitted with KaleidaGraph. Sub-saturating phage concentration that gave 80% of maximum binding signal was determined by the binding curve.
IC50 measurements were performed by mixing a fixed sub-saturating concentration of peptide-displaying phage with a serial dilution of synthetic peptides in PBT buffer. The mixture was added to plates coated with PCSK9 and PCSK9Δhelix and incubated for 1 h at room temperature. The plates were then washed 10 times with PBT buffer and the bound phage was detected by anti-M13-HRP. The data was plotted, curve fitted and IC50 derived by use of KaleidaGraph. All measurements were repeated 3 times independently.

Setting [6] is: TR-FRET, Table 8E, additional compounds, read-out: PCSK9Δhelix/Ab20 IC50.
Where [7] appears, read: Table 11, average ±S.D. of three experiments, read-out: Ab20 IC50.
The mark [8] stands for this setting: TR-FRET, Table 8E, additional compounds, read-out: PCSK9/EGF(A) IC50.
[9] abbreviates: Table 11, average ±S.D. of three experiments, read-out: EGF(A) IC50.

Turning to `CC[C@H](C)[C@H](NC(=O)[C@H](CCCCNC(=N)N)NC(=O)[C@@H](NC(=O)[C@H](CC(C)C)NC(=O)[C@H](CC(N)=O)NC(=O)[C@H](Cc1c[nH]c2ccccc12)NC(C)=O)C(C)C)C(=O)NCC(=O)N[C@@H](CC(C)C)C(=O)N[C@@H](CC(C)C)C(=O)N[C@@H](CCCNC(=N)N)C(N)=O` [Compound 192, Ac-WNLV(homoR)IGLLR-NH2] (Ac-WNLV[hArg]IGLLR-NH2), the IC50 against PCSK9 [1] is over 50 µM; at PCSK9Δhelix [2] (setting [6]) it was 5.3 µM; on PCSK9Δhelix [2] (setting [7]), 5.55 ± 0.36 µM; on PCSK9 [4] (setting [8]), at least 50 µM; at PCSK9 [4] (setting [9]), over 50 µM; in the assay with His-EGF(A)-Fc it was at least 50 µM. Moreover, binding on PCSK9Δhelix [3] (Table 10, binding to PCSK9Δhelix) was characterised by a dissociation constant (Kd) of 1 µM. The “improvement of binding affinity by homo-arginine substitution” value at PCSK9Δhelix [3] (Table 10, versus Compound 53) was found to be 14 fold.
In the case of `CC[C@H](C)[C@H](NC(=O)[C@H](CCCCNC(=N)N)NC(=O)[C@@H](NC(=O)[C@H](CC(C)C)NC(=O)[C@H](CC(N)=O)NC(=O)[C@H](Cc1c[nH]c2ccccc12)NC(=O)CNC(=O)[C@@H]1CCCN1C(=O)[C@H](Cc1ccccc1)NC(=O)[C@H](CO)NC(=O)[C@H](CCC(=O)O)NC(C)=O)C(C)C)C(=O)NCC(=O)N[C@@H](CC(C)C)C(=O)N[C@@H](CC(C)C)C(=O)N[C@@H](CCCNC(=N)N)C(N)=O` [Compound 227] (Ac-ESFPGWNLV[hArg]IGLLR-NH2), the IC50 is over 50 µM against PCSK9 [1]; 24 µM on PCSK9Δhelix [2] (setting [6]); 2.51 ± 0.11 µM on PCSK9Δhelix [2] (setting [7]); 2.5 µM on PCSK9 [4] (setting [8]); 23.2 ± 0.3 µM at PCSK9 [4] (setting [9]); at least 50 µM with His-EGF(A)-Fc. The “lower inhibitory activity versus Compound 229” value at PCSK9 [4] (Table 11) is given as “approximately 3 fold”.
On to `CC[C@H](C)[C@H](NC(=O)[C@H](CCCCNC(=N)N)NC(=O)[C@@H](NC(=O)[C@H](CC(C)C)NC(=O)[C@H](CC(N)=O)NC(=O)[C@H](Cc1c[nH]c2ccccc12)NC(=O)CNC(=O)[C@@H]1CCCN1C(=O)[C@H](Cc1ccc(O)cc1)NC(=O)[C@H](CO)NC(=O)[C@H](CC(=O)O)NC(C)=O)C(C)C)C(=O)NCC(=O)N[C@@H](CC(C)C)C(=O)N[C@@H](CC(C)C)C(=O)N[C@@H](CCCNC(=N)N)C(N)=O` [Compound 230] (Ac-DSYPGWNLV[hArg]IGLLR-NH2), for which the IC50 against PCSK9 [1] is over 50 µM; at PCSK9Δhelix [2] (setting [6]), 24 µM; at PCSK9Δhelix [2] (setting [7]), 2.42 ± 0.2 µM; on PCSK9 [4] (setting [8]) it was 2.3 µM; on PCSK9 [4] (setting [9]), 24.2 ± 0.8 µM; in the assay on His-EGF(A)-Fc, at least 50 µM.
Turning to `CC[C@H](C)[C@H](NC(=O)[C@H](CCCCNC(=N)N)NC(=O)[C@@H](NC(=O)[C@H](CC(C)C)NC(=O)[C@H](CC(N)=O)NC(=O)[C@H](Cc1c[nH]c2ccccc12)NC(=O)CNC(=O)[C@@H]1CCCN1C(=O)[C@H](Cc1ccc(O)cc1)NC(=O)[C@H](CO)NC(=O)[C@H](CCC(=O)O)NC(C)=O)C(C)C)C(=O)NCC(=O)N[C@@H](CC(C)C)C(=O)N[C@@H](CC(C)C)C(=O)N[C@@H](CCCNC(=N)N)C(N)=O` [Compound 231] (Ac-ESYPGWNLV[hArg]IGLLR-NH2), the IC50 on PCSK9 [1] was over 50 µM; at PCSK9Δhelix [2] (setting [6]), 17 µM; on PCSK9Δhelix [2] (setting [7]), 1.49 ± 0.1 µM; on PCSK9 [4] (setting [8]), 1.6 µM; at PCSK9 [4] (setting [9]), 15.8 ± 0.1 µM; with His-EGF(A)-Fc it was at least 50 µM.
`CC[C@H](C)[C@@H]1NC(=O)[C@H](CCCNC(=N)N)NC(=O)[C@H](CCC(N)=O)NC(=O)[C@H](CC(C)C)NC(=O)[C@H](CC(N)=O)NC(=O)[C@H](Cc2c[nH]c3ccccc23)NC(=O)[C@@H]2CCCN2C(=O)[C@H]([C@@H](C)CC)NC(=O)[C@H](Cc2ccccc2)NC(=O)[C@@H](NC(=O)CNC(=O)[C@@H](N)CO)CSSC[C@@H](C(N)=O)NC(=O)[C@H](CC(C)C)NC(=O)[C@H](CC(C)C)NC(=O)CNC1=O` [Compound K9gvpep1] (H-SGCFIPWNLQRIGLLC-NH2; disulfide 3-16): the “competition with binding of phage-displayed Pep2-8 to PCSK9” value at PCSK9 [5] was “did not compete”.
For the compound `CC[C@H](C)[C@@H]1NC(=O)[C@H](CCCNC(=N)N)NC(=O)[C@H](CCC(N)=O)NC(=O)[C@H](CC(C)C)NC(=O)[C@H](CC(N)=O)NC(=O)[C@H](Cc2c[nH]c3ccccc23)NC(=O)[C@@H]2CCCN2C(=O)[C@H](CC(C)C)NC(=O)[C@H](CCCNC(=N)N)NC(=O)[C@@H](NC(=O)CNC(=O)[C@@H](N)CO)CSSC[C@@H](C(N)=O)NC(=O)[C@@H]2CCCN2C(=O)[C@H](CC(C)C)NC(=O)CNC1=O` [Compound K9gvpep4] (H-SGCRLPWNLQRIGLPC-NH2; disulfide 3-16), the “competition with binding of phage-displayed Pep2-8 to PCSK9” value at PCSK9 [5] is on record as “did not compete”.
